What was measured:
STING in THP1-Dual Cells = assay: STING cellular assay in THP1-Dual cells (Lucia luciferase IRF reporter); type: cell-based; details: Homo sapiens, 24 h incubation, QUANTI-Luc readout, 1 nM-10 μM
Description: (§1) STING Cellular Assay in THP1-Dual™ Cells
(§2) THP1-Dual™ cells were derived from the human THP-1 monocyte cell line by stable integration of two inducible reporter constructs. THP1-Dual™ cells feature the Lucia luciferase gene, a new secreted luciferase reporter gene, under the control of an ISG54 (interferon-stimulated gene) minimal promoter in conjunction with five interferon (IFN)-stimulated response elements. THP1-Dual™ cells also express a secreted embryonic alkaline phosphatase (SEAP) reporter gene driven by an IFN-β minimal promoter fused to five copies of the NF-κB consensus transcriptional response element and three copies of the c-Rel binding site. As a result, THP1-Dual™ cells allow the simultaneous study of the NF-κB pathway, by monitoring the activity of SEAP, and the interferon regulatory factor (IRF) pathway, by assessing the activity of Lucia luciferase. Both reporter proteins are readily measurable in the cell culture supernatant when using QUANTI-Blue™, a SEAP detection reagent, and QUANTI-Luc™, a Lucia luciferase detection reagent.
(§3) Distinct variants of human STING (hSTING) that affect CDN recognition and signal transduction have been identified: • R232 (R71-G230-R232-R293): the most prevalent in the human population (˜60%). Referred as the “wild-type” or 232R-RGR allele2. • HAQ (H71-A230-R232-Q293): contains three non-synonymous single nucleotide substitutions; R71H, G230A and R293Q. This allele, found in ˜20% of the population, is less sensitive to CDNs than the “wild-type” allele2.
(§4) Growth Medium: RPMI 1640, 2 mM L-glutamine, 25 mM HEPES, 10% heat-inactivated fetal bovine serum (30 min at 56° C.), 100 μg/mL Normocin™, Pen-Strep (100 U/mL-100 μg/mL)
(§5) 1. After cells have recovered (after at least one passage), maintain and subculture the cells in growth medium. (To maintain selection pressure, add 10 μg/mL of blasticidin and 100 μg/mL of Zeocin™ to the growth medium every other passage.) 2. Pass the cells every 3 days by inoculating 7×10^5 cells/ml.
(§6) Experimental Procedure • 1. Add 180 μL of cell suspension (˜100,000 cells) per well of a flat-bottom 96-well plate (costar 3599). • 2. Then compounds were added with serial dilutions over 10 points with a 1 nM-10 μM final concentration range in 0.10% DMSO/growth medium. • 3. Incubate the plate for 24 h at 37° C., 5% CO2. • 4. Set the BMG PHERAstar FSX instrument with the following parameters: 50 μL of injection, end-point measurement with a 4 second start time and 0.1 second reading time. • 5. Pipet 10 μL of THP1-Dual™ cell culture medium per well into a 96-well white opaque plate (Corning 3903). • 6. Add 50 μL of QUANTI-Luc assay solution to each well and gently tap the plate several times to mix. Proceed immediately with the measurement.

[1] = system: hSTING-R232 in THP1-Dual KI-hSTING-R232 Cells; assay: STING cellular assay in THP1-Dual KI-hSTING-R232 cells (Lucia luciferase IRF reporter); type: cell-based; details: Homo sapiens, 24 h incubation, QUANTI-Luc readout, 1 nM-10 μM
Description: as §1, §2, §3, §4, §5, §6

Row | EC50 (STING in THP1-Dual Cells) [nM] | EC50 [1] [nM] | SMILES
1 | 3.5 | 1.5 | CCn1nc(C)cc1-c1ncc2c3cc(C(N)=O)cc(OC)c3n(C/C=C/Cn3c4nc(-c5cc(C)nn5CC)ncc4c4cc(C(N)=O)cc(OCCCN5CCOCC5)c43)c2n1 [Example 4, (E)-9-(4-(6-carbamoyl-2-(1-ethyl-3-methyl-1H-pyrazol-5-yl)-8-(3-morpholinopropoxy)-9H-pyrimido[4,5-b]indol-9-yl)but-2-en-1-yl)-2-(1-ethyl-3-methyl-1H-pyrazol-5-yl)-8-methoxy-9H-pyrimido[4,5-b]indole-6-carboxamide; formic acid]
2 | 182 | 3.7 | CCn1nc(C)cc1-c1nc(Cl)c2c3cc(C(N)=O)cc(OC)c3n(C/C=C/Cn3c4nc(-c5cc(C)nn5CC)nc(Cl)c4c4cc(C(N)=O)cc(OCCCN5CCOCC5)c43)c2n1 [Example 3, (E)-9-(4-(6-carbamoyl-4-chloro-2-(1-ethyl-3-methyl-1H-pyrazol-5-yl)-8-(3-morpholinopropoxy)-9H-pyrimido[4,5-b]indol-9-yl)but-2-en-1-yl)-4-chloro-2-(1-ethyl-3-methyl-1H-pyrazol-5-yl)-8-methoxy-9H-pyrimido[4,5-b]indole-6-carboxamide; trifluoroacetic acid]
3 | > 10000 | > 10000 | CCn1nc(C)cc1-c1nc(Cl)c2c3cc(C(N)=O)cc(OC)c3n(C/C=C/Cn3c4nc(-c5cc(C)nn5CC)nc(Cl)c4c4cc(C#N)cc(OCCCN5CCOCC5)c43)c2n1 [Example 1, (E)-4-chloro-9-(4-(4-chloro-6-cyano-2-(1-ethyl-3-methyl-1H-pyrazol-5-yl)-8-(3-morpholinopropoxy)-9H-pyrimido[4,5-b]indol-9-yl)but-2-en-1-yl)-2-(1-ethyl-3-methyl-1H-pyrazol-5-yl)-8-methoxy-9H-pyrimido[4,5-b]indole-6-carboxamide]
4 | > 10000 | 3230 | CCn1nc(C)cc1-c1nc(O)c2c3cc(C(N)=O)cc(OC)c3n(C/C=C/Cn3c4nc(-c5cc(C)nn5CC)nc(O)c4c4cc(C(N)=O)cc(OCCCN5CCOCC5)c43)c2n1 [Example 2, (E)-9-(4-(6-carbamoyl-2-(1-ethyl-3-methyl-1H-pyrazol-5-yl)-4-hydroxy-8-(3-morpholinopropoxy)-9H-pyrimido[4,5-b]indol-9-yl)but-2-en-1-yl)-2-(1-ethyl-3-methyl-1H-pyrazol-5-yl)-4-hydroxy-8-methoxy-9H-pyrimido[4,5-b]indole-6-carboxamide; trifluoroacetic acid]

Source: patent US20220289768A1, “HETEROCYCLIC COMPOUNDS AS STING MODULATORS” (BEIGENE, LTD., priority 2019, published 2022)
